# Measurements: ChEMBL document CHEMBL1149779, “Synthesis, characterization and in vitro release studies of a new acetazolamide-HP-beta-CD-TEA inclusion complex” (Eur J Med Chem, 2008)
# Legend:
# physchem [1] = conditions: citric acid-Na2HPO4 buffer, pH 4.12
# Description: Solubility in citric acid-Na2HPO4 buffer at pH 4.12 in presence of 0.0226 mol/l hydroxypropyl-beta-cyclodextrin
# physchem [2] = conditions: NaOH-NaHCO3 buffer, pH 9.57
# Description: Solubility in NaOH-NaHCO3 buffer at pH 9.57 in presence of 0.0604 mol/l hydroxypropyl-beta-cyclodextrin
# physchem [3] = conditions: NaOH-NaHCO3 buffer, pH 9.57; remark: listed apart in the source
# Description: Solubility in NaOH-NaHCO3 buffer at pH 9.57 in presence of 0.1132 mol/l hydroxypropyl-beta-cyclodextrin
# physchem [4] = conditions: NaOH-NaHCO3 buffer, pH 9.57; remark: listed apart in the source
# Description: Solubility in NaOH-NaHCO3 buffer at pH 9.57 in presence of 0.0302 mol/l hydroxypropyl-beta-cyclodextrin
# physchem [5] = conditions: citric acid-Na2HPO4 buffer, pH 4.12; remark: listed apart in the source
# Description: Solubility in citric acid-Na2HPO4 buffer at pH 4.12 in presence of 0.2 M hydroxypropyl-beta-cyclodextrin
# physchem [6] = conditions: water
# Description: Solubility in water in presence of 0.0755 mol/l hydroxypropyl-beta-cyclodextrin
# physchem [7] = conditions: citric acid-Na2HPO4 buffer, pH 4.12; remark: listed apart in the source
# Description: Solubility in citric acid-Na2HPO4 buffer at pH 4.12 in presence of 0.0302 mol/l hydroxypropyl-beta-cyclodextrin
# physchem [8] = conditions: water; remark: listed apart in the source
# Description: Solubility in water in presence of 0.0604 mol/l hydroxypropyl-beta-cyclodextrin
# physchem [9] = conditions: water; remark: listed apart in the source
# Description: Solubility in water in presence of 0.334 mol/l triethanolamine
# physchem [10] = conditions: NaOH-NaHCO3 buffer, pH 9.57; remark: listed apart in the source
# Description: Solubility in NaOH-NaHCO3 buffer at pH 9.57 in presence of 0.1660 mol/l hydroxypropyl-beta-cyclodextrin
# physchem [11] = conditions: citric acid-Na2HPO4 buffer, pH 4.12; remark: listed apart in the source
# Description: Solubility in citric acid-Na2HPO4 buffer at pH 4.12 in presence of 0.0604 mol/l hydroxypropyl-beta-cyclodextrin
# physchem [12] = conditions: water; remark: listed apart in the source
# Description: Solubility in water in presence of 0.0302 mol/l hydroxypropyl-beta-cyclodextrin
# physchem [13] = conditions: citric acid-Na2HPO4 buffer, pH 4.12; remark: listed apart in the source
# Description: Solubility in citric acid-Na2HPO4 buffer at pH 4.12
# physchem [14] = conditions: water; remark: listed apart in the source
# Description: Solubility in water in presence of 0.1001 mol/l triethanolamine
# physchem [15] = conditions: citric acid-Na2HPO4 buffer, pH 4.12; remark: listed apart in the source
# Description: Solubility in citric acid-Na2HPO4 buffer at pH 4.12 in presence of 0.1132 mol/l hydroxypropyl-beta-cyclodextrin
# physchem [16] = conditions: NaOH-NaHCO3 buffer, pH 9.57; remark: listed apart in the source
# Description: Solubility in NaOH-NaHCO3 buffer at pH 9.57 in presence of 0.0226 mol/l hydroxypropyl-beta-cyclodextrin
# physchem [17] = conditions: water; remark: listed apart in the source
# physchem [18] = conditions: citric acid-Na2HPO4 buffer, pH 4.12; remark: listed apart in the source
# Description: Solubility in citric acid-Na2HPO4 buffer at pH 4.12 in presence of 0.0755 mol/l hydroxypropyl-beta-cyclodextrin
# physchem [19] = conditions: water; remark: listed apart in the source
# Description: Solubility in water in presence of 0.1132 mol/l hydroxypropyl-beta-cyclodextrin
# [20] = Permeability across rabbit cornea; format: ADME, tissue-based, Oryctolagus cuniculus
# physchem [21] = conditions: water; remark: listed apart in the source
# Description: Solubility in water in presence of 0.0151 mol/l hydroxypropyl-beta-cyclodextrin
# physchem [22] = conditions: NaOH-NaHCO3 buffer, pH 9.57; remark: listed apart in the source
# Description: Solubility in NaOH-NaHCO3 buffer at pH 9.57 in presence of 0.0755 mol/l hydroxypropyl-beta-cyclodextrin
# physchem [23] = conditions: NaOH-NaHCO3 buffer, pH 9.57; remark: listed apart in the source
# Description: Solubility in NaOH-NaHCO3 buffer at pH 9.57
# physchem [24] = conditions: citric acid-Na2HPO4 buffer, pH 4.12; remark: listed apart in the source
# Description: Solubility in citric acid-Na2HPO4 buffer at pH 4.12 in presence of 0.1660mol/l hydroxypropyl-beta-cyclodextrin
# physchem [25] = conditions: NaOH-NaHCO3 buffer, pH 9.57; remark: listed apart in the source
# Description: Solubility in NaOH-NaHCO3 buffer at pH 9.57 in presence of 0.2 M hydroxypropyl-beta-cyclodextrin
structure (smiles),measurement,setting,value
CC(=O)Nc1nnc(S(N)(=O)=O)s1 [ACETAZOLAMIDE],solubility,physchem [1],1660 µg/mL
same,solubility,physchem [2],4770 µg/mL
same,solubility,physchem [3],5930 µg/mL
same,solubility,physchem [4],3620 µg/mL
same,solubility,physchem [5],4970 µg/mL
same,solubility,physchem [6],5530 µg/mL
same,solubility,physchem [7],1830 µg/mL
same,solubility,physchem [8],4510 µg/mL
same,solubility,physchem [9],3860 µg/mL
same,solubility,physchem [10],7020 µg/mL
same,solubility,physchem [11],2280 µg/mL
same,solubility,physchem [12],2440 µg/mL
same,solubility,physchem [13],850 µg/mL
same,solubility,physchem [14],5910 µg/mL
same,solubility,physchem [15],3780 µg/mL
same,solubility,physchem [16],3210 µg/mL
same,solubility,physchem [17],810 µg/mL
same,solubility,physchem [18],2960 µg/mL
same,solubility,physchem [19],7030 µg/mL
same,permeability,[20],4.1 ×10⁻⁶ cm/s
same,solubility,physchem [21],1880 µg/mL
same,solubility,physchem [22],5290 µg/mL
same,solubility,physchem [23],2770 µg/mL
same,solubility,physchem [24],4970 µg/mL
same,solubility,physchem [25],7020 µg/mL
